# “Also recorded” adds a separate entry of the source.
# Key:
# [1] = test system: black carrot (Deep Purple) roots; assay: Field trial, foliar spray on black carrot, large plots with successive harvests 7 to 35 weeks after planting; type: in vivo, Daucus carota ssp. sativus var. atrorubens Alef.
# Protocol: (§1) The experiment consisted on a factorial combination of […] (Deep Purple F1) and three sowing dates: 19 May 2014, and 18 and 25 May 2015, in field trials in Taastrup, Denmark, at the experimental station in Højbakkegård (latitude 55, longitude […]). Seeds were provided by Chr. Hansen A/S. Plants were cultivated on loamy soil. Air temperatures during the growing period were slightly different in both years of cultivation (mean values of 2 years: 15.4 and 14.6° C., May-October). Rainfall was complemented by irrigation throughout carrot growth to avoid water stress. The routine techniques of cultivation and plant protection, recommended for carrot crop production were applied.
# (§2) Plots were arranged in a randomized block design with three replications. In the three sowing dates, each plot consisted of three 4.5 m-long rows. Additionally, plots of three 12 m-long rows were arranged in 18 May 2015. 2-Chloroethylphosphonic acid solution (CERONE® brand ETHEPHON, 39.9% Bayer CropScience, Leverkusen, Germany) was applied as a foliar spray avoiding the rainy days, at rates of 0, 120 and 360 g·ha^−1 a.i. in 2014; 0, 360, and 720 g·ha^−1 a.i. in 2015 for small plots; and 0 and 360 g·ha^−1 a.i. for large plots. Applications were made using a CO2 backpack spaced 50 cm apart, beginning 6 weeks after planting and continuing every 3 weeks, for a total of 6 applications.
# Large plots (12 m-long rows) were harvested several times from separate row segments, during the growing period from 30 Jun. 2015 to 19 Jan. 2016 (7, 10, 13, 16, 19, 22, 25, 26, 29 and 35 weeks after planting). Carrot production was estimated in large plots 21 weeks after planting: two meters per row was dug from each plot, and the carrots were washed and weighed. Measured weights were extrapolated to tons per hectare. […]
# Soluble solids were calculated with a digital refractometer with automatic temperature compensation and operating range from 0 to 53° Brix. […]
# Dry matter was determined by the mass difference between the fresh sample and the dry sample. […] The results were expressed as percentage of dry matter. […]
# TMC was measured spectrophotometrically based on the pH differential method, with slight modifications. The carrot extract was diluted by adding 20 volumes of 0.2 M KCl-HCl pH 1, and TMC was measured at […] and 700 nm (to correct for sediment) using a UV-Vis spectrophotometer (Evolution™ 220, Thermo Fischer Scientific, Waltham, MA, USA). The TMC was expressed as cyaniding-3-glucoside equivalents (ppm). […]
# [2] = test system: black carrot (Deep Purple F1) roots; assay: Field trial, foliar spray on black carrot, small plots harvested 21 weeks after sowing; type: in vivo, Daucus carota ssp. sativus var. atrorubens Alef.; conditions: for increase of mean anthocyanin concentration of treated plants compared with respective controls: 21 weeks after sowing, foliar spray, 6 applications; for accumulation of anthocyanin in roots: field-applied, measured twenty-one weeks after sowing (FIG. 1, FIG. 2)
# Protocol: as §1, §2
# Small plots (4.5 m-long rows) were harvested 21 weeks after sowing. The roots were manually harvested from the middle part of each row.
# In all analyses, 20 whole carrot roots per plot were washed and split lengthwise: 20 halves were ground in liquid nitrogen, and the generated powder was stored at −80° C. for further gene expression analyses; the complementary 20 halves were coarsely ground in a commercial blender, and 50 g of the resulting purée were immediately homogenized in 50 g of a 3% sulfuric acid solution (v/v), by using a Waring two-speed commercial blender (VWR—Bie & Berntsen, Herlev, Denmark). The resulting fine purée (4 g) was subsequently mixed with demineralized water (8 g) and vortexed. After incubation for 1 h at room temperature, the sample was centrifuged 20 min at 4500 rpm, and the supernatant (extract) was utilized for further analyses.
# Soluble solids were calculated with a digital refractometer with automatic temperature compensation and operating range from 0 to 53° Brix. For its calculation, the carrot extract obtained was filtered through 0.45 μm membrane filters, and Brix measurements were performed using 1 mL of the filtrate. For each measurement, two technical replicates were made and their average was reported.
# Dry matter was determined by the mass difference between the fresh sample and the dry sample. The sample was dried 24 h until it reached a constant weight using an oven at 90° C. The results were expressed as percentage of dry matter. For each measurement, two technical replicates were made and their average was reported.
# TMC was measured spectrophotometrically based on the pH differential method, with slight modifications. The carrot extract was diluted by adding 20 volumes of 0.2 M KCl-HCl pH 1, and TMC was measured at […] and 700 nm (to correct for sediment) using a UV-Vis spectrophotometer (Evolution™ 220, Thermo Fischer Scientific, Waltham, MA, USA). The TMC was expressed as cyaniding-3-glucoside equivalents (ppm).
# All analyses were performed with three technical and three biological replicates. Data were subjected to statistical analysis using SPSS software (version 22, SPSS Inc., Chicago, IL, USA). Treatments were compared using one-way analysis of variance (ANOVA) followed by a Tukey post hoc test. p<0.05 was considered significant.
# [3] = treated plants versus controls (FIG. 1)
smiles,measurement,setting,value
O=P(O)(O)CCCl [2-Chloroethylphosphonic acid],TMC after the last application,[1]; 7 weeks after the application of the last treatment (22 to 27 weeks after planting) (FIG. 3A),continued to increase
same,"root length, treated versus untreated carrots",[1]; at each harvest time (FIG. 4),differed insignificantly
same,"root weight, treated versus untreated carrots",[1]; at each harvest time (FIG. 4),differed insignificantly
same,mean anthocyanin concentration (TMC) of treated roots versus untreated,"[1]; at every harvest point, 7 to 35 weeks after planting, 360 g ha^-1 a.i.",higher
same,effect of total amount applied on the accumulation of anthocyanin,"[2]; 120, 360 and 720 g ha^-1 a.i. treatments compared, either growing season",no differences were found; also recorded: nonsignificant effect
same,increase of mean anthocyanin concentration of treated plants compared with respective controls,[2]; Harvest 1 (first of three repetitions of two growing seasons),49%
same,increase of mean anthocyanin concentration of treated plants compared with respective controls,[2]; Harvest 2 (second of three repetitions),38%
same,increase of mean anthocyanin concentration of treated plants compared with respective controls,[2]; Harvest 3 (third of three repetitions),65%
same,root weight,[2]; either growing season (FIG. 1),did not affect
same,accumulation of anthocyanin in roots,[2],induced the accumulation of anthocyanin
same,accumulation of anthocyanin in roots,[2]; listed as ethylene-releasing compound,increased amounts of anthocyanin; also recorded: induced the accumulation of anthocyanin
same,increase of mean anthocyanin concentration in the roots of treated plants compared with respective controls (summary),"[2]; pre-harvest foliar spraying on black carrot leaves, over all repetitions",more than 35%
same,dry weight (DW),[2]; [3],lowest values
same,soluble sugar content (SSC),[2]; [3],lowest values
same,root colour in cross and longitudinal sections,[2]; treated roots versus untreated roots with white core (FIG. 2),solid purple colour
